The test system of series [1] is A549 lung cancer cells. Kind of series: Real-time impedance (ECIS) monitoring of γδ T cell killing. To be noted: low dose.
Experimental: In addition, real-time monitoring of γδ T-mediated killing of cancer cells was performed using the Electric Cell-Substrate Impedance Sensing (ECIS) monitoring system with an 8W10E+ culture chamber (Applied Biophysics). Mock or DAC-treated cancer cells were cultured in the chamber at 37° C. overnight until the cancer cells were fully attached to the bottom of the wells. Following the addition of γδ T cells, the detachment of cancer cells indicating cell death was recorded in real-time using multiple frequency capture with the ECIS software. Relative impendence at the time of γδ T cell addition was used for between-sample normalization.
Series [2] concerns A549 human lung cancer cells. Kind of series: SILAC-based quantitative surface proteomics of decitabine-treated cells. The following applies: A549, both D3 and D3R3, 100 nM. It counts as cell-based. The method, then: (§1) For drug treatment experiments, cells were cultured with 100 nM decitabine (DAC; A3656, Sigma-Aldrich) for three days with daily change of complete medium and drug replenishment, followed by 3 to 4 days of cell recovery in the decitabine-free medium. To block the DAC's effect on immune synapse formation via actin cytoskeleton reorganization, the DAC-pretreated (D3R3) cells were treated with 1 μg/mL cytochalasin B (Cyto B; C6762, Sigma-Aldrich) for 1.5 hours prior to coculture with γδ T cells.
(§2) For quantitative mass spectrometry analysis, lung cancer cells were cultured for at least seven cell doublings in SILAC RPMI medium (88365, Thermo Fisher Scientific) supplemented with 10% FBS and heavy isotope-labeled amino acids (L-Lysine 13C6, L-Arginine 13C6) (CLM-2247-H-1, CLM-2265-H-1, Cambridge Isotope Laboratories). DAC-treated cells grown in the regular medium were considered as SILAC light counterparts.
(§3) Cancer cells (around 1.5×10^7 cells) were grown in a 15-cm culture dish and washed with ice-cold PBS (21040CM, Corning) before the labeling. […] The protein concentration of the supernatants was determined using Pierce 660 nm Protein Assay Reagent Kit (22660, Thermo Fisher Scientific) supplemented with Ionic Detergent Compatibility Reagent (22663, Thermo Fisher Scientific). […]

Series [3] deals with A549, H1299 and CL1-0 human lung cancer cell lines. Kind of series: SILAC-based surface proteomics compared across cell lines. To be noted: D3R3, A549, H1299, CL1-0. The method, then: as §1, §2, §3
The test system of series [4] is H1299 lung cancer cells. Put plainly: Immunofluorescence imaging of immune synapses between cancer and γδ T cells. It counts as cell-based, human. The method, then: as §1
Cancer and γδ T cells were spun down onto poly-L-lysine coated coverslips by using a Cyto-Tek table-top cytofuge at 500 rpm for 5 minutes (Sakura Scientific) before fixation with ice-cold methanol or 4% (w/v) paraformaldehyde in PBS for 10 minutes. The fixed samples were blocked in detergent-free blocking solution [1% normal donkey serum (ab7475, abcam) and 3% BSA in PBS] without membrane permeabilization by detergents. Subsequently, cells were incubated with primary antibodies diluted in the blocking solution for 1 hour in a moist chamber at room temperature and washed with PBS. Labeling of fluorescent secondary antibodies at 1:200 dilution in PBS was carried out in the blocking buffer for 1 hour at room temperature. After PBS washing, cell nuclei were stained with Hoechst 33342 or DAPI (62248, Thermo Fisher Scientific) in PBS. Finally, the samples were washed with PBS and mounted on the slides. All slides were examined under an epifluorescence microscope EVOS FLc (Invitrogen), and the images were analyzed using the ImageJ software. For the visualization of immune synaptic proteins, cells were imaged with a high-resolution confocal microscope (LSM780, Zeiss) with a 63×oil objective and analyzed with the confocal software ZEN (Zeiss).

[5] abbreviates: DAC D3R3 plus 1 μg/mL Cyto B 1.5 hours.

“Also recorded” adds a separate entry of the source.

These results are taken from US12514866B2, “Method for treating cancer” (National Taiwan University, priority 2021, dated 2026).

As to `Nc1ncn([C@H]2C[C@H](O)[C@@H](CO)O2)c(=O)n1` [DAC, decitabine], the “Cytotoxicity / cell viability with DAC alone” value in series [1] is “does not cause significant cytotoxicity; also recorded: minimal effects on cell viability”. For the same molecule, in series [2], the “Number of proteins with sustained upregulation by at least 1.4-fold” value worked out at 314. Further, the “Number of proteins commonly upregulated in all three lung cancer cell lines” value in series [3] amounted to 431.

For the molecule `C=C1[C@@H](C)[C@H]2[C@H](Cc3ccccc3)NC(=O)[C@]23OC(=O)/C=C/[C@H](O)CCC[C@@H](C)C/C=C/[C@H]3[C@@H]1O` [cytochalasin B], in series [4] (setting [5]), the “DAC-induced F-actin clustering and pTyr signaling at immune synapses” value was “abolished”; the “ICAM-1 expression at immune synapses” value is “minimal effects”. In series [4] (DAC plus Cyto B), the “DAC effects on width of the synaptic cleft” value was “diminished” and the “DAC's enhancing effects on immune synapse formation” value is listed as “significantly counteracted”.
